Reference: patent publication US10590145B2, “Tetrahydrothiopyranopyrimidine derivatives as anti-HIV agent” (SHANDONG UNIVERSITY, priority 2016, dated 2020)
Where two headings read alike, the source gives them in different places.

What was measured:
Assay type in all cases: cell-based
[1] = tested on: HIV-1 double mutant RES056 (Y181C/K103N); assay: Anti-HIV-1 activity in MT-4 cells (MTT method), RES056; details: for EC50: Human immunodeficiency virus 1, MT4, read-out: EC50 (nM) Y181C/K103N
Procedure: (§1) Selected compounds were screened for inhibitory activity against HIV-1 using MTT method as describe previously by Christophe. Pannecouque et al. Nat. Protoc. 3 (2008) 427-434, and Rudi Pauwels et al. J. Virol. Methods 20 (1988) 309-321. Briefly, MT-4 cells infected with HIV-1 can only survive for 5 to 7 days without any treatment, but when HIV-1 inhibitors were added, they can protect MT-4 cell from cytopathic. Serial solution of compounds was added to MT-4 cells after infected with HIV-1, MTT method was used to detect the survival rate after culture for 5 to 7 days. EC50 value was defined as compound concentration required to achieve 50% protection of MT-4 cells against HIV-1-induced cytopathic effect. In vitro anti-HIV-1 assay was supported by Rega Institute for Medical Research.
(§2) • (1) MT-4 cells infected with HIV-1 viral strains (IIIB, L100I, K103N, Y181C, Y188L, E138K, F227L/V106A, Y181C/K103N) were provided by Rega Institute for Medical Research, Katholieke Universiteit Leuven, Belgium. • (2) MTT and formazan: sigma Chemical Co. • (3) Preparation of compounds: Stock solutions (10×final concentration) of test compounds is diluted with double distilled water for 5 folds and 5 concentrations of one compound are prepared. • (4) Reference drugs: Nevirapine (NVP), Efavirenz (EFV), Etravirine (ETV), Rilpivirine (RPV) and Azidothymidine (AZT). • (5) Method (MTT method): Serial five-fold dilutions of test compounds were added to cultured MT-4 cells infected with HIV-1, after 5 to 7 days, MTT was added and cultured for a few hours. Medium was removed and lysate was added followed by formazan, OD value was determined in 690 nm and 540 nm by microplate reader, and EC50 value was calculated. 2. Method
(§3) The MTT method was described briefly as follows: 96-well plastic microtiter trays were filled with 100 μL of complete medium. Subsequently, serial of tested compounds was added (25 μL) to two series of triplicate wells so as to allow simultaneous evaluation of their effects on HIV- and mock infected cells. 50 μL of 1×10^4 cells/mL MT-4 cells were added. After cultured for 5 days at 37° C. in humidified atmosphere in the presence of 5% CO2, MTT was added and cultured for another 2 h, then medium was removed and 100 μL isopropanol solution was added to lyse the cells. Formazan crystals were added and vibrated platform shaker for 10 min to solubilize the formazan crystals. Absorbances at 690 nm and 540 nm were read by using spectrophotometrically. EC50 was defined as the concentration achieving 50% protection from the cytopathic effect of the virus in infected cells.
(§4) Selected compounds prepared as described above were assayed in MT-4 cells infected with wide-type IIIB, L100I, K103N, Y181C, Y188L, E138K or double mutant RES056 (Y181C/K103N) and F227L/V106A HIV-1 strains. Nevirapine, Efavirenz, Etravirine, Rilpivirine and Azidothymidine were selected as reference drugs. The results were listed below as EC50 value (nM)

[2] = tested on: HIV-1 F227L/V106A double mutant strain; assay: Anti-HIV-1 activity in MT-4 cells (MTT method), F227L/V106A; details: for EC50: Human immunodeficiency virus 1, MT4, read-out: EC50 (nM) F227L/V106A
Procedure: as §1, §2, §3, §4

[3] = tested on: HIV-1 L100I mutant strain; assay: Anti-HIV-1 activity in MT-4 cells (MTT method), L100I; details: for EC50: Human immunodeficiency virus 1, MT4, read-out: EC50 (nM) L100I
Procedure: as §1, §2, §3, §4

[4] = tested on: HIV-1 K103N mutant strain; assay: Anti-HIV-1 activity in MT-4 cells (MTT method), K103N; details: for EC50: Human immunodeficiency virus 1, MT4, read-out: EC50 (nM) K103N
Procedure: as §1, §2, §3, §4

[5] = tested on: HIV-1 Y188L mutant strain; assay: Anti-HIV-1 activity in MT-4 cells (MTT method), Y188L; details: for EC50: Human immunodeficiency virus 1, MT4, read-out: EC50 (nM) Y188L
Procedure: as §1, §2, §3, §4

[6] = tested on: wide-type HIV-1 (strain IIIB); assay: Anti-HIV-1 activity in MT-4 cells (MTT method), wild-type
Procedure: as §1, §2, §3, §4

[7] = tested on: HIV-1 Y181C mutant strain; assay: Anti-HIV-1 activity in MT-4 cells (MTT method), Y181C; details: for EC50: Human immunodeficiency virus 1, MT4, read-out: EC50 (nM) Y181C
Procedure: as §1, §2, §3, §4

[8] = tested on: HIV-1 E138K mutant strain; assay: Anti-HIV-1 activity in MT-4 cells (MTT method), E138K; details: Human immunodeficiency virus 1, MT4, read-out: EC50 (nM) E138K
Procedure: as §1, §2, §3, §4

[9] = Human immunodeficiency virus 1, IIIB, MT4, read-out: EC50 (nM) wt

Row | SMILES | EC50 [1] [nM] | EC50 [2] [nM] | EC50 [3] [nM] | EC50 [4] [nM] | EC50 [5] [nM] | EC50 ([6]; Human immunodeficiency virus 1, MT4, MT-4 cells, 50% protection against HIV-1-induced cytopathicity, wt (IIIB), read-out: EC50 (nM) wt) [nM] | EC50 [7] [nM] | EC50 [8] [nM] | EC50 [6, 9] [nM] | fold more potent than ETV against Y181C/K103N ([1]; Y181C/K103N, relative to ETV) [fold] | fold more potent than ETV against F227L/V106A ([2]; F227L/V106A, relative to ETV) [fold] | fold more potent than ETV against L100I ([3]; L100I, relative to ETV) [fold] | Activity against K103N compared with ETV ([4]; K103N, relative to ETV) | Activity against Y188L compared with ETV ([5]; Y188L, relative to ETV) | fold more potent than ETV against Y181C ([7]; Y181C, relative to ETV) [fold]
1 | O=C1Nc2ccc(Cl)cc2[C@@](C#CC2CC2)(C(F)(F)F)O1 [EFV, Efavirenz, reference compound] | > 100 | 10 to 100 | 10 to 100 | 10 to 100 | 10 to 100 | < 10 | < 10 | < 10 |  |  |  |  |  |  | 
2 | Cc1cc(C#N)cc(C)c1Oc1nc(Nc2ccc(C#N)cc2)nc(N)c1Br [ETV, Etravirine, reference compound] | 10 to 100 | 10 to 100 | < 10 | < 10 | 10 to 100 |  | 10 to 100 | 10 to 100 | < 10 |  |  |  |  |  | 
3 | Cc1cc(/C=C/C#N)cc(C)c1Oc1nc(Nc2ccc(C#N)cc2)nc2c1SCCC2 [IA-1-2, (E)-4-((4-(4-(2-cyanovinyl)-2,6-dimethylphenoxy)-7,8-dihydro-6H-thiopyrano[3,2-d]pyrimidin-2-yl)amino)benzonitrile] | 10 to 100 | 10 to 100 | < 10 | < 10 | 10 to 100 |  | 10 to 100 | 10 to 100 | < 10 |  |  |  |  |  | 
4 | Cc1cc(C#N)cc(C)c1Oc1nc(NC2CCN(Cc3ccc(S(N)(=O)=O)cc3)CC2)nc2c1SCCC2 [IIA-1-1, 4-((4-((4-(4-cyano-2,6-dimethylphenoxy)-7,8-dihydro-6H-thiopyrano[3,2-d]pyrimidin-2-yl)amino)piperidin-1-yl)methyl)benzenesulfonamide] | 10 to 100 | 10 to 100 | 10 to 100 | < 10 | < 10 |  | 10 to 100 | < 10 | < 10 |  |  |  |  |  | 
5 | Cc1cc(C)c(Oc2nc(NC3CCN(Cc4ccc(S(N)(=O)=O)cc4)CC3)nc3c2SCCC3)c(C)c1 [IIA-1-2, 4-((4-((4-(mesityloxy)-7,8-dihydro-6H-thiopyrano[3,2-d]pyrimidin-2-yl)amino)piperidin-1-yl)methyl)benzenesulfonamide] | > 100 | 10 to 100 | 10 to 100 | < 10 | 10 to 100 |  | 10 to 100 | 10 to 100 | < 10 |  |  |  |  |  | 
6 | Cc1cc(/C=C/C#N)cc(C)c1Oc1nc(NC2CCN(Cc3ccc(S(N)(=O)=O)cc3)CC2)nc2c1SCCC2 [IIA-1-3, (E)-4-((4-((4-(4-(2-cyanovinyl)-2,6-dimethylphenoxy)-7,8-dihydro-6H-thiopyrano[3,2-d]pyrimidin-2-yl)amino)piperidin-1-yl)methyl)benzenesulfonamide] | 10 to 100 | < 10 | < 10 | < 10 | 10 to 100 |  | < 10 | 10 to 100 | < 10 | 2 | 2 | 2 | comparable | comparable | 2
7 | Cc1cc(C#N)cc(C)c1Oc1nc(NC2CCN(Cc3cccc(S(N)(=O)=O)c3)CC2)nc2c1SCCC2 [IIA-1-4, 3-((4-((4-(4-cyano-2,6-dimethylphenoxy)-7,8-dihydro-6H-thiopyrano[3,2-d]pyrimidin-2-yl)amino)piperidin-1-yl)methyl)benzenesulfonamide] | > 100 | 10 to 100 | > 100 | 10 to 100 | 10 to 100 |  | 10 to 100 | 10 to 100 | < 10 |  |  |  |  |  | 
8 | Cc1cc(C#N)cc(C)c1Oc1nc(NC2CCN(Cc3ccc(C#N)cc3)CC2)nc2c1SCCC2 [IIA-1-5, 4-((2-((1-(4-cyanobenzyl)piperidin-4-yl)amino)-7,8-dihydro-6H-thiopyrano[3,2-d]pyrimidin-4-yl)oxy)-3,5-dimethylbenzonitrile] | > 100 | > 100 | 10 to 100 | 10 to 100 | 10 to 100 |  | 10 to 100 | 10 to 100 | < 10 |  |  |  |  |  | 
9 | Cc1cc(C#N)cc(C)c1Oc1nc(NC2CCN(Cc3cccc(C#N)c3)CC2)nc2c1SCCC2 [IIA-1-6, 4-((2-((1-(3-cyanobenzyl)piperidin-4-yl)amino)-7,8-dihydro-6H-thiopyrano[3,2-d]pyrimidin-4-yl)oxy)-3,5-dimethylbenzonitrile] | > 100 | > 100 | > 100 | 10 to 100 | 10 to 100 |  | 10 to 100 | 10 to 100 | < 10 |  |  |  |  |  | 
10 | Cc1cc(C#N)cc(C)c1Oc1nc(NC2CCN(Cc3ccccc3C#N)CC2)nc2c1SCCC2 [IIA-1-7, 4-((2-((1-(2-cyanobenzyl)piperidin-4-yl)amino)-7,8-dihydro-6H-thiopyrano[3,2-d]pyrimidin-4-yl)oxy)-3,5-dimethylbenzonitrile] | > 100 | > 100 | > 100 | 10 to 100 | > 100 |  | 10 to 100 | 10 to 100 | < 10 |  |  |  |  |  | 
11 | Cc1cc(C#N)cc(C)c1Oc1nc(NC2CCN(Cc3ccc(C(N)=O)cc3)CC2)nc2c1SCCC2 [IIA-1-8, 4-((4-((4-(4-cyano-2,6-dimethylphenoxy)-7,8-dihydro-6H-thiopyrano[3,2-d]pyrimidin-2-yl)amino)piperidin-1-yl)methyl)benzamide] | 10 to 100 | > 100 | 10 to 100 | < 10 | 10 to 100 |  | 10 to 100 | 10 to 100 | < 10 |  |  |  |  |  | 
12 | Cc1cc(C#N)cc(C)c1Oc1nc(NC2CCN(Cc3cccc(C(N)=O)c3)CC2)nc2c1SCCC2 [IIA-1-9, 3-((4-((4-(4-cyano-2,6-dimethylphenoxy)-7,8-dihydro-6H-thiopyrano[3,2-d]pyrimidin-2-yl)amino)piperidin-1-yl)methyl)benzamide] | > 100 | > 100 | 10 to 100 | 10 to 100 | 10 to 100 |  | 10 to 100 | 10 to 100 | < 10 |  |  |  |  |  | 
13 | CCOC(=O)c1ccc(CN2CCC(Nc3nc4c(c(Oc5c(C)cc(C#N)cc5C)n3)SCCC4)CC2)cc1 [IIA-1-10, ethyl 4-((4-((4-(4-cyano-2,6-dimethylphenoxy)-7,8-dihydro-6H-thiopyrano[3,2-d]pyrimidin-2-yl)amino)piperidin-1-yl)methyl)benzoate] | > 100 | > 100 | > 100 | 10 to 100 | > 100 |  | > 100 | > 100 | 10 to 100 |  |  |  |  |  | 
14 | Cc1cc(C#N)cc(C)c1Oc1nc(NC2CCN(Cc3ccc(S(C)(=O)=O)cc3)CC2)nc2c1SCCC2 [IIA-1-11, 3,5-dimethyl-4-((2-((1-(4-(methylsulfonyl)benzyl)piperidin-4-yl)amino)-7,8-dihydro-6H-thiopyrano[3,2-d]pyrimidin-4-yl)oxy)benzonitrile] | 10 to 100 | 10 to 100 | 10 to 100 | < 10 | 10 to 100 |  | 10 to 100 | 10 to 100 | < 10 |  |  |  |  |  | 
